Here are results for 14 compounds from ChEMBL document CHEMBL3120110, “Design, synthesis, biological evaluation, and comparative docking study of 1,2,4-triazolones as CB1 receptor selective antagonists” (Eur J Med Chem, 2014).

Experiment [1] addresses T1, Cannabinoid receptor 1 (Homo sapiens, UniProt P21554). It counts as functional, cell-based, CHO.
In experiment [2] the target is T2, Cannabinoid receptor 2 (Homo sapiens, UniProt P34972). Nature of the experiment: Antagonist activity at CB2 receptor (unknown origin) stably expressed in CHO cells co-expressing co-expressing Ga15/16 assessed as calcium current at 10 uM after 45 mins by fluo-4 AM assay relative to basal control. It counts as functional, cell-based.
Experiment [3] concerns the target T1, Cannabinoid receptor 1. To be noted: CHO, at 10 µM.
For experiment [4], the target named is T2, Cannabinoid receptor 2. The experiment can be described thus: Antagonist activity at CB2 receptor (unknown origin) stably expressed in CHO cells co-expressing co-expressing Ga15/16 assessed as calcium current after 45 mins by fluo-4 AM assay. It counts as functional, cell-based.

T2 sequence (P34972 whole entry): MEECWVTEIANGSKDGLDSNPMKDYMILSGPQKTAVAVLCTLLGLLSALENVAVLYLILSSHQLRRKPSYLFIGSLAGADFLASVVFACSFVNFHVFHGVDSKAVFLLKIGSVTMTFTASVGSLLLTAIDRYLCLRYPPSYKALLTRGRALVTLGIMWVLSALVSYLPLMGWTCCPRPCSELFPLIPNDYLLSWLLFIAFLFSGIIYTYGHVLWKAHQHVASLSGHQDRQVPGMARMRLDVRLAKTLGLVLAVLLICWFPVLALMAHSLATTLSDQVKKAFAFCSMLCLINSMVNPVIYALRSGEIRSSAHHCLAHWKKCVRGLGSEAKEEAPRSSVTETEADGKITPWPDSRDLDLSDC
T1 sequence (P21554 whole entry): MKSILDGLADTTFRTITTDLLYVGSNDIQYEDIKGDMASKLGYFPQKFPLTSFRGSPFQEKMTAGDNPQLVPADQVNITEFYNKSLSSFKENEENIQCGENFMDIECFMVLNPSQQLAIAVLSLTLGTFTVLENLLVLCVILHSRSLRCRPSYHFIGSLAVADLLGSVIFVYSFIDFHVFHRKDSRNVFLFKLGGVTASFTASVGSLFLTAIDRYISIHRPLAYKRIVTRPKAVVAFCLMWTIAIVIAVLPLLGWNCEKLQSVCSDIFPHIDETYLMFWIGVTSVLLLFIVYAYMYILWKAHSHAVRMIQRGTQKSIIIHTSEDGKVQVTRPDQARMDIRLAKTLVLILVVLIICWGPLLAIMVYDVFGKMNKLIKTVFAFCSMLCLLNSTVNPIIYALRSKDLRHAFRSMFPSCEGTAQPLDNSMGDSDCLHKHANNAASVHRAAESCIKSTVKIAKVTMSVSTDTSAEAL

By IC50 is commonly meant the concentration that inhibits the measured activity by half. A word on the inhibition: it is the change of the read-out against control, counted positive when it falls. With `COc1ccc(-c2nn(C(=O)Nc3ccc(Cl)cc3)c(=O)n2-c2ccc(C)cc2)cc1`, at Cannabinoid receptor 1 [1], 4730 nM corresponded to half-maximal inhibition (IC50). In addition, the values for the inhibition at Cannabinoid receptor 2 [2] and on Cannabinoid receptor 1 [3] were 43.6% and 90.5%, respectively.
Take `COc1ccc(-c2nn(C(=O)NC3CCCCC3)c(=O)n2-c2ccc(C)cc2)cc1`: the results for the 50% inhibitory concentration (IC50) on Cannabinoid receptor 1 [1] and at Cannabinoid receptor 2 [4] were 1840 nM and 4.09 µM, respectively. In addition, the inhibition on Cannabinoid receptor 2 [2] is 131%; against Cannabinoid receptor 1 [3], 98%.
In the same order, the values of `COc1ccc(-n2c(-c3ccc(Cl)cc3)nn(C(=O)Nc3ccc(C)cc3)c2=O)cc1` are 8440 nM, 20 µM, 85.6% and 74.6%.
The compound `Cc1ccc(Cn2c(-c3ccc(C)cc3)nn(C(=O)Nc3ccc(Cl)cc3)c2=O)cc1` showed a 50% inhibitory concentration (IC50) against Cannabinoid receptor 1 [1] of 3750 nM. In addition, the inhibition at Cannabinoid receptor 2 [2] was 29.9%; on Cannabinoid receptor 1 [3], 89%.
The compound `Cc1ccc(NC(=O)n2nc(-c3ccc(C)cc3)n(-c3ccc(Cl)cc3)c2=O)cc1` came in with an IC50 at Cannabinoid receptor 1 [1] of 947 nM. In addition, at Cannabinoid receptor 1 [3], the inhibition worked out at 91.9%.
At Cannabinoid receptor 1 [1], `Cc1ccc(-c2nn(C(=O)NC3CCCCC3)c(=O)n2-c2ccc(Cl)cc2)cc1` displayed an IC50 of 2100 nM. Also, the inhibition at Cannabinoid receptor 2 [2] was found to be 58.5%; at Cannabinoid receptor 1 [3], 98.2%.
The like results for `Cc1ccc(-n2c(-c3ccc(Cl)cc3)nn(C(=O)NC3CCCCC3)c2=O)cc1` were, in that order, 222 nM, 46.4% and 102%.
For the compound `Cc1ccc(Cn2c(-c3ccc(Cl)cc3)nn(C(=O)NC3CCCCC3)c2=O)cc1`, the inhibition on Cannabinoid receptor 2 [2] is 87.7%; at Cannabinoid receptor 1 [3], 42.6%. Moreover, on Cannabinoid receptor 2 [4], the IC50 amounted to 1.93 µM.
In turn, `COc1ccc(-c2nn(C(=O)Nc3ccc(C)cc3)c(=O)n2-c2ccc(Cl)cc2)cc1` showed an IC50 against Cannabinoid receptor 1 [1] of 2280 nM. Also, the inhibition on Cannabinoid receptor 2 [2] is 74%; at Cannabinoid receptor 1 [3], 96.6%.
`COc1ccc(-c2nn(C(=O)NC3CCCCC3)c(=O)n2-c2ccc(Cl)cc2)cc1`: the IC50 at Cannabinoid receptor 1 [1] was 878 nM; at Cannabinoid receptor 2 [4], 6.08 µM. Further, the inhibition on Cannabinoid receptor 2 [2] amounted to 124%; at Cannabinoid receptor 1 [3], 96.5%.
On to `Cc1ccc(Cn2c(-c3ccc(Cl)cc3)nn(C(=O)Nc3ccc(C)cc3)c2=O)cc1`, for which, at Cannabinoid receptor 1 [3], the inhibition was found to be 36.8%.
As for `COc1ccc(-n2c(-c3ccc(Cl)cc3)nn(C(=O)NC3CCCCC3)c2=O)cc1`, the IC50 at Cannabinoid receptor 1 [1] was 388 nM; on Cannabinoid receptor 2 [4], 1.51 µM. The inhibition turned out to be 94% on Cannabinoid receptor 2 [2] and 98.6% at Cannabinoid receptor 1 [3].
`CCCCCOc1c(OC)ccc2cc(C(=O)NCc3ccc4c(c3)OCO4)c(=O)[nH]c12`: the inhibition on Cannabinoid receptor 2 [2] came to 130%; at Cannabinoid receptor 1 [3], 37.6%.
Take `Cc1ccc(Cn2c(-c3ccc(C)cc3)nn(C(=O)NC3CCCCC3)c2=O)cc1`: the IC50 against Cannabinoid receptor 1 [1] stood at 17800 nM; at Cannabinoid receptor 2 [4] it was 5.03 µM. Moreover, the inhibition came out at 132% at Cannabinoid receptor 2 [2] and 60.9% on Cannabinoid receptor 1 [3].
